Results published in patent US4214095A, “Chlorobenzyl phenoxy alkoxylates” (Siegfried Aktiengesellschaft, priority 1979, dated 1980).
Structures can show the parent of a compound that is named as a salt. Where two headings read alike, the source gives them in different places.

What was measured:
[1] = test system: cholesterol level in the blood serum; assay: Cholesterol-lowering effectiveness (E1 D25) in rats; format: in vivo, male Whistar rats; conditions: for ED25: Rattus norvegicus, male Whistar rats, oral, daily, two weeks (5 + 5 days), vs control, read-out: E1 D25 (dose causing 25% reduction of average serum cholesterol level); for cholesterol lowering effectiveness (in words): conclusion from Table I
Experimental: (§1) The compounds of Examples I to VIII were tested to evaluate their pharmacological effectiveness. Specifically, their toxicity (LD50), cholesterol-lowering effectiveness (E1 D25) and their liver weight increasing activity (E2 D25) were tested on animals according to standard methods.
(B) The effective dose E1 D25 is the amount of test substance in milligram per kilogram body weight of the test animals (male Whistar rats, 100-200 g body weight, eight to ten animals per dosis) that causes a 25% by weight reduction of the average cholesterol level in the blood serum of test animals that had received the test substance, compared with the cholesterol level in the blood serum of the control group. The test substances were administered orally via a probe in the manner set forth above for the LD50 toxicity, i.e. as suspension in aqueous Gum Arabic. Each test animal was administered daily with 10 ml of the suspension per kilogram body weight. The animals of the control group were administered daily with each 10 ml of the aqueous Gum Arabic per kilogram of body weight without the test substance. The daily dose was administered for 5 subsequent days, resumed after a two-day week-end interval and continued for 5 additional days. After a total test period of two weeks, both the test and the control animals were sacrificed and the blood serum was recovered from the bodies for analysis.
Cholesterol analysis of the serum recovered was carried out according to the standard method of M. Richterich (cf. Monography by M. Richterich, "Klinische Chemie," Verlag Karger, Basel/New York, 1965, p. 232) and the results were evaluated by means of a cholesterol level/dose diagram. The E1 D25 values were taken from the diagram thus obtained. Lower E1 D25 values indicate higher activity, and vice versa.

[2] = Acute oral toxicity (LD50) in mice; format: in vivo; conditions: mouse, in vivo
Experimental: as §1
(§2) At least three different doses were tested for each LD50 value given and 10 animals were used for testing of each dose; five test animals were kept in one standard "Macrolon" cage. The test substance was administered as a suspension in aqueous (3-5% by weight) Gum Arabic via a probe into the stomach in quantities of 10 ml of the suspension per kilogram body weight. As is conventional, LD50 is that dose of the test substance in mg/kg body weight which causes death of 50% of the test animals within the observation period. Higher LD50 values indicate lower toxicity and vice versa.

mice [3] = assay: Acute oral toxicity (LD50) in mice; format: in vivo; conditions: conclusion from Table I
Experimental: as §1, §2

[4] = test system: liver weight/body weight ratio (relative liver weight); set-up: species or system male Whistar rats; conditions: rat, in vivo
Experimental: as §1
(C) The effective dose E2 D25 is the amount of test substance in milligram per kilogram body weight of the test animals (male Whistar rats, 100-200 g body weight, eight to ten animals per dose) that causes a 25% increase of the liver weight/body weight ratio (relative liver weight) of test animals that had received that test substance, compared with the liver weight/body weight ratio of the control group. Administration was effected substantially in the manner described above for E1 D25. The relative liver weight was determined from the bodies of the sacrificed animals and the control animals. The actual increase of the relative liver weight was evaluated graphically and the E2 D25 was obtained by interpolation from the graph.

mice [5] = conditions: background section; cited from earlier work
[6] = mice, single oral dose, 7 days observation or longer, read-out: LD50

SMILES | ED25 [1] [mg/kg] | cholesterol lowering effectiveness (in words) [1] | LD50 at 168 h ([2]; po, read-out: LD50) [mg/kg] | also measured
CCOC(=O)C(C)(CC)Oc1ccccc1Cc1ccc(Cl)cc1 (racemic) [Example I, ethyl D,L-2-methyl-2-[o-(p'-chlorobenzyl)-phenoxy]butyrate] | ~10 | high cholesterol lowering effectiveness | > 10000 | toxicity (in words) (mice [3]): low toxicity; liver enlargement activities (in words) [4]: low or very low liver enlargement activities
CCCC(C)(Oc1ccccc1Cc1ccc(Cl)cc1)C(=O)OCC (racemic) [Example II, ethyl D,L-2-methyl-2-[o-(p'-chlorobenzyl)-phenoxy]-valerate] | ~40 |  | > 10000 | 
CCC(C)(Oc1ccccc1Cc1ccc(Cl)cc1)C(=O)OCc1cccnc1 (racemic) [Example III, D,L-2-methyl-2-[o-(p'-chlorobenzyl)-phenoxy]-butyric acid-(3-oxymethyl-pyridine)-ester hydrochloride] | ~10 |  | > 3000 | 
CCOC(=O)C(C)(C)Oc1ccccc1Cc1ccc(Cl)cc1 [Example IV, ethyl 2-methyl-2-[o-(p'-chlorobenzyl)-phenoxy]propionate] | ~90 |  | > 10000 | 
CC(C)(Oc1ccccc1Cc1ccc(Cl)cc1)C(=O)OCc1cccnc1 [Example V, 2-methyl-2-[o-(p'-chlorobenzyl)-phenoxy]-propionic acid-(3-oxymethyl-pyridine)-ester hydrochloride] |  |  |  | LD50 at 168 h [2, 6]: > 3000 mg/kg
CCOC(=O)C(C)(CC)Oc1cccc(Cc2ccc(Cl)cc2)c1 (stereo not drawn) [Example VIII] | 40 |  |  | 
CCOC(=O)C(C)Oc1ccccc1Cc1ccc(Cl)cc1 (stereo not drawn) [Example VII] | 100 | reduced cholesterol lowering effect | > 3000 | 
CCOC(=O)COc1ccccc1Cc1ccc(Cl)cc1 [Example VI] | 300 | reduced cholesterol lowering effect | 3000 | 
CCOC(=O)C(C)(CC)Oc1ccc(Cc2ccc(Cl)cc2)cc1 (stereo not drawn) [Substance A, ethyl ester of 2methyl-2-4(4chlorobenzyl)-phenoxy-butyric acid, reference compound] | 12.1 |  |  | LD50 at 168 h ([2]; po): 8000 mg/kg
CCOC(=O)C(C)(C)Oc1ccc(Cl)cc1 [Substance B, Ethyl p-chlorophenoxyisobutyrate, reference compound] | 151 |  |  | LD50 at 168 h [2, 6]: 2350 mg/kg; toxicity (in words) (mice [5]): relatively high toxicity
